Patent US20150065888A1, “METHOD AND APPARATUS FOR OBTAINING VASODILATION DATA REPRESENTING CUTANEOUS LOCAL THERMAL HYPEREMIA RESPONSE OF A SUBJECT” (NEW CHINESE BIOTECHNOLOGY CORPORATION LTD, priority 2012, published 2015)

System: cutaneous local thermal hyperemia response
Test: Cutaneous local thermal hyperemia test by laser Doppler flowmetry before and after chemical intervention (oral β-blocker)
Type: in vivo, human
Settings: subject with panic disorder, 30 minutes after oral propranolol 10 mg
Procedure: The participants were supine during the entire test period. Cutaneous blood flow was measured by LDF (Moor DRT4, Moor Instruments Ltd, Axminster, Devon, UK). For each measurement, blood pressure was recorded continuously with a non-invasive blood pressure monitor (CareTaker, Empirical Technologies Corporation, Charlottesville, Va., USA) on the middle finger of the dominant hand throughout the procedures.
Blood flow was recorded simultaneously on the upper one-fourth of the bilateral forearm using LDF (DP12-V2 probe, 2 channels, length: 12 mm, diameter 1.5 mm; Moor Instruments Ltd.), and two recording sites were located at the radial half of the flexor and extensor aspects of the forearm, which were located according to a predefined rule. The probe was mounted to a probe holder to hold the probe in position. The extensor and flexor recording sites were located along the line between the extensor and flexor aspects of the lateral epicondyle of the humerus, respectively, and the lateral side of the styloid process of radius. The same sites were measured bilaterally with the flexor and extensor aspects in a random sequence. The recording sites were kept thermally neutral at 33° C. by a heater (SH02-SHP2 probe, Moor Instruments Ltd.) for 5 minutes for the baseline measurement, and then the temperature was increased to 42° C. by 1° C./10 seconds and maintained at 42° C. for up to 5 minutes. After completing the measurements, the holders were maintained in situ, and all of the procedures were repeated with the same recording sequence 45 minutes after the first measurement. The holders were then removed without marking after the first day of the experiment. The same procedures were conducted at the same time 1 to 3 days later, and the recording sites were relocated according to the same predefined rule.
Cutaneous red blood cell flux (RBCF), expressed as arbitrary perfusion units (PUs), was used to indicate local cutaneous blood flow, and CVC (PU/mmHg), which derived from RBCF divided by mean arterial pressure to adjust for the influence of blood pressure, was the indicator of blood flow change.
Baseline CVC, peak CVC, absolute change of peak CVC, percent change of peak CVC, 4 minutes area-under-the-curve (AUC), and time to peak flux were used as indicators of the hyperemic response during heating. The absolute change of peak CVC was defined as the peak CVC minus baseline CVC, and the percentage of peak CVC change equals to the absolute change of peak CVC divided by baseline CVC multiplied by 100%. The 4 minutes AUC was the accumulation of blood flux during the first 4 minutes of the heating period. The time to peak flux was the period from the heating started and up to peak flux.
Upon arrival in the laboratory, the subjects were arranged on chairs in a temperature- and humidity-controlled laboratory (40-60% humidity, 25±1° C.) for acclimation of 30 minutes. After the acclimation period, the thermal hyperemia test was performed at specified sampling sites. The participants were supine during the entire test period. Cutaneous blood flow was measured by LDF (Moor DRT4, Moor Instruments Ltd, Axminster, Devon, UK). For each measurement, blood pressure was recorded continuously with a non-invasive blood pressure monitor (CareTaker, Empirical Technologies Corporation, Charlottesville, Va., USA) on the middle finger of the dominant hand throughout the procedures. The sampling and data processing procedures taught in Example 1, above, also applied in the present example.
Subject (45 kg) suffering from panic disorder was sampled at the infraclavicular, parasternal and axilla sites (points (i), (j) and (l) in FIG. 2) on both the right and left sides before and after the administration of β-blocker. Specifically, the post-β-blocker sampling procedure was performed at 30 minutes after the oral administration of β-blocker, propranolol, (10 mg).

CC(C)NCC(O)COc1cccc2ccccc12 (stereo not drawn) [propranolol]
CVCI, max, After (Axilla, left): 1.09 PU/mmHg
Initial AUC, After (Axilla, left): 17019 PU
ΔCVC, After (Axilla, left): 0.92 PU/mmHg
CVCI, max, After (Axilla, right): 1.91 PU/mmHg
Initial AUC, After (Axilla, right): 31740 PU
ΔCVC, After (Axilla, right): 1.63 PU/mmHg
CVCI, max, After (Infraclavicular, left): 1.03 PU/mmHg
Initial AUC, After (Infraclavicular, left): 17298 PU
ΔCVC, After (Infraclavicular, left): 0.88 PU/mmHg
CVCI, max, After (Infraclavicular, right): 1.95 PU/mmHg
Initial AUC, After (Infraclavicular, right): 33797 PU
ΔCVC, After (Infraclavicular, right): 1.76 PU/mmHg
CVCI, max, After (Parasternal, left): 1.45 PU/mmHg
Initial AUC, After (Parasternal, left): 26800 PU
ΔCVC, After (Parasternal, left): 1.28 PU/mmHg
CVCI, max, After (Parasternal, right): 2.53 PU/mmHg
Initial AUC, After (Parasternal, right): 47602 PU
ΔCVC, After (Parasternal, right): 2.36 PU/mmHg
